Key:
A2058 cells [1] = assay: Experimental melanoma metastasis, i.v. luciferase-expressing A2058 cells in NOD/SCID mice; type: in vivo; conditions: n=10 per group
Method: FIGS. 6A-N show combined MEK and proteasome inhibition exerts potent tumor-suppressive effects. (A) After treatments with 20 nM AZD6244, 100 nM Bortezomib, or both for 24 hr, viable cells were quantitated by CellTiter® Blue (mean±SD, n=6, ANOVA). (B and C) 1×10^6 A2058 cells were s.c. injected into NOD/SCID mice. After 7 days, mice were treated with DMSO, 5 mg/Kg AZD6244, 0.5 mg/Kg Bortezomib, or the combination via i.p. injection three times a week. Tumor volumes were measured using a caliper weekly (mean±SEM, ANOVA). Tumor growth curves were fitted to exponential growth models to derive tumor-doubling time (DT). Kaplan-Meier survival curve was plotted for each group (Log-rank test). (D) Proteins were detected by immunoblotting, 3 tumors per group. (E) Tumor lysates were used to quantitate AOs, 5 tumors per group (mean±SD, n=3, ANOVA). (F) Tumor lysates were used to seed Aβ1-42 peptides, 5 tumors per group (mean±SD, n=3, ANOVA). (G-H) Tumor sections were stained with CR, 5 tumors per group. […] Total CR fluorescence in each field was quantitated using ImageJ and normalized against total nuclei (median, n=50, ANOVA). […] Body weights were monitored weekly (mean±SD, n=10, ANOVA). […]
A2058 cells were s.c. injected into the left flanks of 9-week-old female NOD.CB17-Prkdc/J (NOD/SCID) mice (The Jackson Laboratory). […] Tumor volumes were calculated following the formula 4/3πR^3. […]

A2058 cells [2] = assay: Ubiquitination proteomics (UbiScan, LC-MS/MS) of A2058 cells; type: cell-based, human; conditions: 20 nM AZD6244, 8 hrs vs DMSO
Method: (A) GFP and GFP-GR plasmids were co-transfected into HEK293T cells followed by treatments with 20 nM AZD6244, 20 μM U0126, or 200 nM 17-DMAG for 4 hr. (B) GFP-GR plasmids were co-transfected into HEK293T cells with HA-Ub-K48 plasmids, which encode a mutant ubiquitin that can be conjugated to protein substrates only via lysine 48. Following treatments with 20 nM AZD6244 or 200 nM 17-DMAG for 4 hr, GFP-GR proteins were precipitated and ubiquitination was detected using anti-HA antibodies. (C) Denatured firefly luciferases were incubated with lysates of A2058 cells treated with DMSO or 20 nM AZD6244 (mean±SD, n=4, ANOVA). (D) A2058 cells were treated with 20 nM AZD6244, and ubiquitinated proteins were detected in both detergent-soluble and -insoluble fractions using Lys48-specific ubiquitin antibodies. […] (G) Experimental procedures of MS-based quantitation of ubiquitinated peptides, two technical replicates per treatment. […] (Q) Endogenous RPL15 and RPL3 proteins were detected in A2058 cells treated with 20 nM AZD6244 alone or co-treated with 500 nM MG132. (R) Endogenous RPL15 and RPL3 proteins were detected in A2058 cells stably expressing LacZ or HSF1^S326D with AZD6244 treatment. […]
A2058 cells were grown in 150 mm culture dishes and treated with DMSO or 20 nM AZD6244 for 8 hrs. […] Two technical replicates were analyzed for each treatment.

A2058 cells [3] = assay: In vivo CR administration in A2058 xenograft with or without combined treatment; design: species or system NOD/SCID mice
Method: FIGS. 7A-H show amyloidogenesis suppresses tumor growth. (A) Sections of melanomas receiving combined treatment were stained with cleaved caspase 3 antibodies followed by CR staining Arrowheads and arrows indicate condensed and fragmented nuclei, respectively. Scale bar: 50 μm. (B) 1×10^6 A2058 cells were s.c. injected into NOD/SCID mice. After 7 days, mice were treated with 1 mg/30 g CR via i.p. injection one day prior to combined treatment. Tumor volumes were measured weekly (mean±SD, ANOVA). […] Lysis buffer containing CR served as a positive control. (D) Kaplan-Meier survival curves were compared (Log-rank test). (E and F) Both detergent-soluble and -insoluble fractions of tumor lysates were used to quantitate amyloids, 3 tumors per group (mean±SD, n=3, Student's t-test). (G) Proteins were detected by immunoblotting, 3 tumors per group. (H) Schematic depiction of the interplay among MEK, ERK, and HSF1, and its role in regulating proteome stability. Balanced proteostasis suppresses toxic protein aggregation and amyloidogenesis, thereby facilitating tumorigenesis. See also FIG. 14.
This figure is related to FIG. 7. (A) CR treatment stimulates in vivo melanoma growth and renders melanomas partially resistant to combined MEK and proteasome inhibition. Tumors were harvested at sacrifice and weighed (mean±SD, n=10, ANOVA). (B) CR treatment exacerbates body weight loss in tumor-bearing mice. Body weights were recorded before xenografting and at sacrifice. To derive net body weights of melanoma-bearing mice, tumor weights were subtracted from total body weights. Results are presented as body weight changes before and after xenografting (paired Student's t-test).
A2058 cells were s.c. injected into the left flanks of 9-week-old female NOD.CB17-Prkdc/J (NOD/SCID) mice (The Jackson Laboratory). For CR treatment, mice were i.p. injected with PBS or CR one day prior to combined AZD6244 and Bortezomib treatments. Tumor volumes were calculated following the formula 4/3πR^3. For experimental metastasis, engineered A2058 cells were transplanted into 10-week-old female NOD/SCID mice via tail vein injections. All mouse experiments were performed under a protocol approved by The Jackson Laboratory Animal Care and Use Committee.

HSF1 = assay: Dual HSF1 reporter assay (HSE-SEAP / CMV-GLuc) in HEK293T cells; type: cell-based; conditions: 20 μM U0126, 20 nM AZD6244, 1 μM FR180204 or 100 nM Sch772984
Method: (A) NIH3T3 cells were treated with HS at 43° C. for 30 min, 10 μM tubastatin A for 5 hr, 40 μM VER155008 for 1 hr, 500 nM MG132 for 1 hr, 200 nM 17-DMAG for 1 hr, and 2.5 mM azetidine for 15 min (B) The dual ELK1 reporter system, comprising a serum response element (SRE)-driven secreted embryonic alkaline phosphatase (SEAP) plasmid and a CMV-driven Gaussia luciferase (GLuc) plasmid, was transfected into HEK293T cells. After 24 hr, cells were treatments as in (A) and recovered overnight before measuring reporter activities (mean±SD, n=6, ANOVA). (C and D) NIH3T3 cells were treated with 20 μM U0126 or 20 nM AZD6244 for 3 hr followed by HS and 4-hr recovery. mRNA levels were quantitated by qRT-PCR (mean±SD, n=3, Student's t-test). (E) Immediately after HS, nuclear proteins of NIH3T3 cells treated as in (C) were extracted to measure HSF1-DNA binding by an ELISA-based assay (mean±SD, n=3, ANOVA). (F) HEK293T cells were transfected with dual HSF1 reporter plasmids, a heat-shock element (HSE)-driven SEAP plasmid and a CMV-GLuc plasmid. […] (G) HEK293T cells were treated with different inhibitors overnight. […] After 24 hr, cells were heat shocked at 43° C. for 30 min followed by overnight recovery (mean±SD, n=3, ANOVA). […]
FIGS. 8A-H illustrate that MEK and ERK inversely regulate the PSR. […] Cell viability was measured by a Guava EasyCyte™ flow cytometer using Guava ViaCount™ reagents (mean±SD, n=5, Student's t test). […] Levels of ERK1 and ERK2 mRNAs were quantitated in HEK293T cells transfected with ERK1-targeting siRNAs by qRT-PCR (mean±SD, n=3, ANOVA). […] Levels of ERK2 and ERK1 mRNAs were quantitated in HEK293T cells transfected with ERK2-targeting siRNAs by qRT-PCR (mean±SD, n=3, ANOVA).
Plasmids were transfected with TurboFect transfection reagent (Thermo Scientific). SEAP and luciferase activities in culture supernatants were quantitated using a Ziva® Ultra SEAP Plus Detection Kit (Jaden BioScience) and a Gaussia Luciferase Glow Assay Kit (Thermo Scientific), respectively. Luminescence signals were measured by a VICTORS Multilabel plate reader (PerkinElmer).

[4] = test system: ERK complexes precipitated from HEK293T cells; assay: In vitro kinase assay with immunoprecipitated ERK complexes; type: biochemical; conditions: 1000 ng MBP
Method: Co-expressed GFP proteins served as internal controls. […] See also FIG. 10.
Samples were boiled for 5 min to stop reactions.

HSF1 Ser326 = HSF1 Ser326 phosphorylation by immunoblotting in HEK293T cells; type: cell-based; conditions: overnight, 20 μM U0126, 20 nM AZD6244, 1 μM FR180204 or 100 nM Sch772984
Method: This figure is related to FIG. 3. (A) Validation of phospho-HSF1 Ser326 antibodies. […] (B) MEK blockade impairs HSF1 Ser326 phosphorylation. […] (D-E) S326A mutation impairs HSF1 nuclear translocation. […] (F) Acute MEK depletion diminishes HSF1 proteins. […] HSF1 proteins were detected by immunoblotting. (G) ERK-mediated HSF1 Ser307 phosphorylation depends on MEK. […] Levels of phosphor-HSF1 Ser307 were measured by immunoblotting. (H) HSF1 Ser326 phosphorylation inhibits Ser307 phosphorylation.

ERK = assay: Immunoblotting of ERK and MSK1 phosphorylation in HEK293T cells; type: cell-based; conditions: inhibitors overnight
Method: Whole-cell protein extracts were prepared in cold cell-lysis buffer (100 mM NaCl, 30 mM Tris-HCl pH 7.6, 1% Triton X-100, 30 mM NaF, 1 mM EDTA, 1 mM sodium orthovanadate, and Halt™ protease inhibitor cocktail from Thermo Scientific). Proteins were separated on SDS-PAGE gels and transferred to nitrocellulose membranes. Primary antibodies were applied in wash buffer overnight at 4° C. Peroxidase-conjugated secondary antibodies were applied at room temperature for 1 hr, and signals were visualized by SuperSignal West chemiluminescent substrate (Thermo Fisher Scientific), followed by exposure to films.

Cn1cnc2c(F)c(Nc3ccc(Br)cc3Cl)c(C(=O)NOCCO)cc21 [AZD6244, selumetinib]
mice with luminescence detected by in vivo imaging (A2058 cells [1]): 40% | increase in ubiquitination of RPL3 (A2058 cells [2]): 13.7 fold | increase in ubiquitination of TOR1AIP2 (A2058 cells [2]): 61.0 fold

Nc1c(/N=N/c2ccc(-c3ccc(/N=N/c4cc(S(=O)(=O)O)c5ccccc5c4N)cc3)cc2)cc(S(=O)(=O)O)c2ccccc12 [CR, Congo red]
melanoma growth (A2058 cells [3]; 1 mg/30 g CR i.p.): accelerated | tumor suppression imposed by combined MEK and proteasome inhibition (A2058 cells [3]; 1 mg/30 g CR i.p. one day prior to combined treatment): potently antagonized | amyloids in tumor tissues (A2058 cells [3]; CR treatment): reduced | animal survival (A2058 cells [3]; CR treatment): shortened | body conditions (A2058 cells [3]; CR treatment): deteriorated | tumor masses (A2058 cells [3]; CR treatment): enlarged | ubiquitination in tumors (A2058 cells [3]; CR treatment): did not diminish | caspase 3 cleavage in tumors (A2058 cells [3]; CR-treated tumors): reduced | penetration of CR into tumor tissues (A2058 cells [3]; absorbance of tumor lysates): intense light absorption of tumor lysates at 498 nm

Nc1[nH]nc2nnc(-c3c(-c4ccccc4)nn4ccccc34)cc12 [FR180204]
transcriptional activation of HSF1 (HSF1): activated | phosphorylation of myelin basic protein (MBP) by precipitated ERK complexes [4]: blocked | HSF1 Ser326 phosphorylation (HSF1 Ser326): enhances | ERK phosphorylation (ERK): promoted

O=C(Nc1ccc2[nH]nc(-c3ccncc3)c2c1)[C@@H]1CCN(CC(=O)N2CCN(c3ccc(-c4ncccn4)cc3)CC2)C1 [Sch772984]
transcriptional activation of HSF1 (HSF1): activated | HSF1 Ser326 phosphorylation (HSF1 Ser326): enhances | ERK phosphorylation (ERK): suppressed
